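Test compounds were applied to cells in 96-well plates for 48 hours at 5 doses. GI50 = concentration required for 50% inhibition of growth. TGI is the concentration that stops growth completely.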
What was measured:
Assay in all cases: NCI anticancer screen, dose series, 48 h
[1] = tested on: A498 renal
[2] = tested on: A549 NSCLC
[3] = tested on: ACHN renal
[4] = tested on: BT-549 breast
[5] = tested on: CAKI-1 renal
[6] = tested on: CCRF-CEM leukemia
[7] = tested on: DU-145 prostate
[8] = tested on: EKVX NSCLC
[9] = tested on: HCT-15 colon
[10] = tested on: HL-60(TB) leukemia
[11] = tested on: HOP-62 NSCLC
[12] = tested on: HT29 colon
[13] = tested on: IGROV1 ovarian
[14] = tested on: K-562 leukemia
[15] = tested on: MDA-MB-231 breast
[16] = tested on: MDA-MB-435
[17] = tested on: MOLT-4 leukemia
[18] = tested on: NCI-H226 lung
[19] = tested on: NCI-H23 lung
[20] = tested on: NCI/ADR-RES ovarian
[21] = tested on: OVCAR-3 ovarian
[22] = tested on: OVCAR-4 ovarian
[23] = tested on: OVCAR-5 ovarian
[24] = tested on: OVCAR-8 ovarian
[25] = tested on: PC-3 prostate
[26] = tested on: RPMI-8226 leukemia
[27] = tested on: SF-539 CNS
[28] = tested on: SK-MEL-28 melanoma
[29] = tested on: SK-MEL-5 melanoma
[30] = tested on: SK-OV-3 ovarian
[31] = tested on: SN12C renal
[32] = tested on: SNB-75 CNS
[33] = tested on: SR leukemia
[34] = tested on: SW-620 colon
[35] = tested on: T-47D breast
[36] = tested on: TK-10 renal
[37] = tested on: UACC-257 melanoma
[38] = tested on: UO-31 renal

Compound: COc1cc2nc(Cl)nc(Nc3cccc(C4=Nc5c(N)nc(N)nc5NC(c5ccc(Cl)cc5)C4)c3)c2cc1OC (stereo unspecified)
- GI50 [1]: 10.5 µM
- TGI [1]: 26.9 µM
- GI50 [2]: 3.14 µM
- TGI [2]: 16.1 µM
- GI50 [3]: 2.15 µM
- TGI [3]: 4.87 µM
- GI50 [4]: 7.93 µM
- TGI [4]: 38 µM
- GI50 [5]: 1.99 µM
- TGI [5]: 4.49 µM
- GI50 [6]: 1.59 µM
- TGI [6]: 5.3 µM
- GI50 [7]: 2.07 µM
- TGI [7]: 4.84 µM
- GI50 [8]: 2.44 µM
- TGI [8]: 9.17 µM
- GI50 [9]: 2.07 µM
- TGI [9]: 4.8 µM
- GI50 [10]: 1.79 µM
- TGI [10]: 4.18 µM
- GI50 [11]: 5.24 µM
- TGI [11]: 32.5 µM
- GI50 [12]: 2.05 µM
- TGI [12]: 4.53 µM
- GI50 [13]: 2.9 µM
- TGI [13]: 10.9 µM
- GI50 [14]: 1.91 µM
- TGI [14]: 4.16 µM
- GI50 [15]: 1.63 µM
- TGI [15]: 3.29 µM
- GI50 [16]: 1.64 µM
- TGI [16]: 3.07 µM
- GI50 [17]: 1.75 µM
- TGI [17]: 5.1 µM
- GI50 [18]: 14.9 µM
- TGI [18]: 50.1 µM
- GI50 [19]: 2.69 µM
- TGI [19]: 8.4 µM
- GI50 [20]: 4.16 µM
- TGI [20]: 92 µM
- GI50 [21]: 2.04 µM
- TGI [21]: 4.2 µM
- GI50 [22]: 2 µM
- TGI [22]: 4.81 µM
- GI50 [23]: 2.12 µM
- TGI [23]: 5.25 µM
- GI50 [24]: 2.35 µM
- TGI [24]: 5.99 µM
- GI50 [25]: 3.97 µM
- TGI [25]: 37.9 µM
- GI50 [26]: 1.97 µM
- TGI [26]: 4.84 µM
- GI50 [27]: 1.72 µM
- TGI [27]: 3.13 µM
- GI50 [28]: 1.66 µM
- TGI [28]: 3.1 µM
- GI50 [29]: 1.68 µM
- TGI [29]: 3.08 µM
- GI50 [30]: 21.8 µM
- TGI [30]: 48 µM
- GI50 [31]: 2.68 µM
- TGI [31]: 8.1 µM
- GI50 [32]: 2.39 µM
- TGI [32]: 14.3 µM
- GI50 [33]: 1.91 µM
- TGI [33]: 5.33 µM
- GI50 [34]: 1.85 µM
- TGI [34]: 3.79 µM
- GI50 [35]: 2.02 µM
- TGI [35]: 4.61 µM
- GI50 [36]: 2.62 µM
- TGI [36]: 6.87 µM
- GI50 [37]: 2.43 µM
- TGI [37]: 6.22 µM
- GI50 [38]: 2.48 µM
- TGI [38]: 8.89 µM

From PubChem BioAssay (NCI)
